Consider 13 compounds from patent publication US20240124483A1, “Methods for the Treatment of Fibrotic Disease” (SHY Therapeutics, LLC, priority 2021, published 2024).

Read-outs that look alike come from different tables or passages of the source.

Experiment [1] concerns the target KRas Q61H mutant (Homo sapiens (Human), UniProt P01116, Q61H). In words: Ras GTP Binding Domain Inhibition Assay, KRas Q61H mutant. As for the experimental part:
A Ras Superfamily Activity Assay (as disclosed in International Application No. PCT/US2018/038613, filed Jun. 20, 2018, which is incorporated by reference in its entirety) was used as a specific assay to evaluate compounds against the following for the following Ras Superfamily proteins: KRas wild type, KRas Q61H mutant, KRas G12C mutant, KRas G12D mutant, Rac-1, and Rho-A.
Buffer-I: • 25 mM Tris-HCl, pH 7.4 • 27 mM KCl • 137 mM NaCl • 1 mM MgCl2 • 1 mM DTT
Buffer-II: • 50 mM Tris-HCl, pH 7.0 • 1 mM MgCl2 • 1 mM DTT
The small GTPases proteins: KRas wild type. KRas Q61H mutant, KRas G12C mutant, KRas G12D mutants, Rac-1, and Rho-A were expressed as His-tagged proteins. In addition, the Guanosine nucleotide Exchange Factor (GEF) Sos protein (residues 556-1049) was expressed as a His-tagged protein. In cells, the guanine nucleotide exchange factor Sos protein promotes activation of Ras proteins by stimulating an exchange of GDP for GTP. The inclusion of Sos to the Ras GTP binding domain inhibition assay may be considered as an alternative representation of physiological cellular conditions for evaluating the inhibitory activity of some of the tested small molecules.
For the assay, all purified small GTPases proteins were diluted in Buffer-I or Buffer-II to a final concentration of 10-30 μg/mL. 200 μL of each diluted protein was added to a nickel-coated 96-well plate and incubated overnight at 4° C. Then the protein solution was discarded and 200 μL of Buffer-I or Buffer-II was added to each well in the presence of 1% DMSO. Compounds to be tested were added to the protein-coated wells at final concentration of 20 μM, and incubated for 3 hours at room temperature with and without 10-30 μg/mL of Sos added to the final hour of the incubation. When performing IC50 measurements a serial dilution of all tested concentrations was added. Then Cy3-GTP or Cy5-GTP was added to each well to a final concentration of 100 nM. The labeled GTP was incubated for 45 minutes at room temperature. Following GTP incubation, wells were washed 3× in Buffer-I or Buffer-II and 200 μL of Buffer-I or Buffer-II was added to each well. Following washes, the amount of bound labeled-GTP was measured using a SpectraMax M3 (Molecular Devices).

Experiment [2] concerns ERK1/2 phosphorylation. In words: Western ERK1/2 Cell-Based Phosphorylation Assay. The conditions noted are these: Homo sapiens, PANC-1, 6 hours, EGF 1.5 ng/ml, read-out: % inh of ERK1/2 phosphorylation in PANC-1. As for the experimental part:
Cell lines: Human tumor-derived pancreatic cancer cell line Panc-1 was purchased from American Type Culture Collection and grown in complete DMEM-High Glucose, supplemented with penicillin (100 U/mL), streptomycin (100 μg/mL), and 10% heat-inactivated FBS at 37° C. in a humidified incubator with 5% CO2.
(§1) Method: Cells were plated at 350000 cells/well density in a 12-well plate, allowed 3 hours to adhere to the plate, then starved in the appropriate medium in the presence of 0.5% FBS overnight. The small molecules to be tested were added to the cells in the final concentration of 10 μM in the presence of 0.3% DMSO for 6 hours incubation at 37° C. For IC50 value determination, serial dilutions of compounds were added to cells under the same conditions. Next, cells were stimulated with 1.5 ng/ml EGF for 15 minutes then cells were lysed with lysis buffer containing 1% Triton X-100, EDTA, and Halt™ Protease & Phosphatase Inhibitor Cocktail (Thermo Scientific). Protein concentration was assessed by BCA protein assay (Thermo Scientific). Phosphorylation level of ERK1/2 was determined by western blot.
(§2) Western blot protocol: Equal amounts of protein (15-50 μg) were separated by SDS-PAGE and transferred to nitrocellulose membranes (Invitrogen by Thermo Fisher Scientific). The membrane was stained with Ponceau S Stain (Boston BioProducts) to verify uniform protein loading. Membranes were blocked with 10% milk and phosphorylation levels of ERK1/2 were assessed by incubating overnight at 4° C. with anti-phospho-p44/42 (Thr202/Tyr204) antibody (Cell Signaling) followed by HRP-conjugated secondary antibody (Jackson Immunoresearch, West Grove, PA). Bands were incubated in Amersham ECL Prime Western Blotting Detection Reagent (GE Healthcare) and visualized using the ChemiDoc MP imaging system (Bio-Rad).

Experiment [3] deals with AKT phosphorylation. In words: Western AKT Cell-Based Phosphorylation Assay. As to conditions: Homo sapiens, PANC-1, 6 hours, EGF 1.5 ng/ml, read-out: % inh of AKT phosphorylation in PANC-1. As for the experimental part:
Human tumor-derived pancreatic cancer cell line Panc-1 was purchased from American Type Culture Collection and grown in complete DMEM-High Glucose supplemented with penicillin (100 U/mL), streptomycin (100 μg/mL), and 10% heat-inactivated FBS at 37° C. in a humidified incubator with 5% CO2.
as §1, with “C.” for “C. For IC50 value determination, serial dilutions of compounds were added to cells under the same conditions.”, “Akt” for “ERK1/2”
as §2, with “Akt” for “ERK1/2”, “anti-phospho-Akt (Ser473)” for “anti-phospho-p44/42 (Thr202/Tyr204)”

[4] abbreviates: + SOS, read-out: KRas Q61H mutant + SOS: % inh.
Where [5] appears, read: without SOS, read-out: KRas Q61H mutant: % inh.

Chain of KRas Q61H mutant (P01116 other isoform, or with tags, fused parts or gaps Q61H): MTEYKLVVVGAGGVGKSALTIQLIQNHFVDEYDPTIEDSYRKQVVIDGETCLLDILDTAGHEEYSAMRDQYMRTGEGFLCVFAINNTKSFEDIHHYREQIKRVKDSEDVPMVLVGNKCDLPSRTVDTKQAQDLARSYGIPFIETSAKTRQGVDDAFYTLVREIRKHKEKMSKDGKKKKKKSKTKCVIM

Turning to `CO[C@H]1CC[C@@H](Nc2nc(-c3nccn3C)nc3sc(-c4ccn(C)n4)c(-c4ccccc4)c23)C1` (racemic) [Compound 5, rac-N-((1R,3S)-3-Methoxycyclopentyl)-2-(1-methyl-1H-imidazol-2-yl)-6-(1-methyl-1H-pyrazol-3-yl)-5-phenylthieno[2,3-d]pyrimidin-4-amine], the inhibition at 20 µM was 76 to 100% in experiment [1] (setting [4]) and 26 to 45% in experiment [1] (setting [5]).

For `COc1cccc(-c2sc3nc(-c4nccn4C)nc(NC4CCC(OC)C4)c3c2C)c1F` (racemic) [Compound 10, rac-6-(2-Fluoro-3-methoxyphenyl)-N-((1R,3S)-3-methoxycyclopentyl)-5-methyl-2-(1-methyl-1H-imidazol-2-yl)thieno[2,3-d]pyrimidin-4-amine and rac-6-(2-Fluoro-3-methoxyphenyl)-N-((1R,3R)-3-methoxycyclopentyl)-5-methyl-2-(1-methyl-1H-imidazol-2-yl)thieno[2,3-d]pyrimidin-4-amine], the inhibition at 20 µM in experiment [1] (setting [4]) and in experiment [1] (setting [5]) was 46 to 75% in each case.

For `CO[C@H]1CC[C@@H](Nc2nc(-c3nccn3C)nc3sc(-c4ccn(C(C)C)n4)c(C)c23)C1` (racemic) [Compound 12, rac-6-(1-Isopropyl-1H-pyrazol-3-yl)-N-((1R,3S)-3-methoxycyclopentyl)-5-methyl-2-(1-methyl-1H-imidazol-2-yl)thieno[2,3-d]pyrimidin-4-amine], the inhibition at 20 µM in experiment [1] (setting [4]) and in experiment [1] (setting [5]) was 76 to 100% in each case. For the same compound, the IC50 in experiment [1] (+ SOS) is 5 to 10 µM.

`COC1CCCN(c2nc(-c3nccn3C)nc3sc(-c4ccn(C(C)C)n4)c(C)c23)C1` (racemic) [Compound 14, rac-6-(1-Isopropyl-1H-pyrazol-3-yl)-4-(3-methoxypiperidin-1-yl)-5-methyl-2-(1-methyl-1H-imidazol-2-yl)thieno[2,3-d]pyrimidine]: the inhibition at 10 µM in experiment [2] is 76 to 100%; in experiment [3] it was 46 to 75%. The inhibition at 20 µM lay in the range of 76 to 100% in experiment [1] (setting [4]) and 26 to 45% in experiment [1] (setting [5]).

In the case of `COCC1CN(c2nc(-c3nccn3C)nc3sc(-c4ccn(C(C)C)n4)c(C)c23)CCO1` (racemic) [Compound 15, 4-(6-(1-Isopropyl-1H-pyrazol-3-yl)-5-methyl-2-(1-methyl-1H-imidazol-2-yl)thieno[2,3-d]pyrimidin-4-yl)-2-(methoxymethyl)morpholine], the inhibition at 10 µM in experiment [2] was 46 to 75%; in experiment [3] it was 76 to 100%. In addition, the inhibition at 20 µM in experiment [1] (setting [4]) and in experiment [1] (setting [5]) was 76 to 100% in each case.

With `CO[C@@H]1CC[C@H](Nc2nc(-c3nccn3C)nc3sc(-c4ccn(C(C)C)n4)c(-c4ccccc4)c23)C1` (single isomer, unassigned) [Compound 11], the inhibition at 20 µM lay within 76 to 100% in experiment [1] (setting [4]) and 46 to 75% in experiment [1] (setting [5]). For the same compound, in experiment [1] (+ SOS), the IC50 was in the range of 1 to 4.99 µM.

Regarding `COCCNc1nc(-c2nccn2C)nc2sc(-c3ccccc3)c(-c3ccccc3)c12` [Compound 1, N-(2-Methoxyethyl)-2-(1-methyl-1H-imidazol-2-yl)-5,6-diphenylthieno[2,3-d]pyrimidin-4-amine], the inhibition at 20 µM in experiment [1] (setting [4]) and in experiment [1] (setting [5]) was 46 to 75% throughout.

In the case of `COCCCNc1nc(-c2nccn2C)nc2sc(-c3ccccc3)c(-c3ccccc3)c12` [Compound 3, N-(3-Methoxypropyl)-2-(1-methyl-1H-imidazol-2-yl)-5,6-diphenylthieno[2,3-d]pyrimidin-4-amine], the inhibition at 20 µM in experiment [1] (setting [4]) and in experiment [1] (setting [5]) was 46 to 75% throughout.

As for `COC1CCN(c2nc(-c3nccn3C)nc3sc(-c4ccn(C)n4)c(-c4ccccc4)c23)CC1` [Compound 6, 4-(4-Methoxypiperidin-1-yl)-2-(1-methyl-1H-imidazol-2-yl)-6-(1-methyl-1H-pyrazol-3-yl)-5-phenylthieno[2,3-d]pyrimidine], the inhibition at 20 µM in experiment [1] (setting [4]) and in experiment [1] (setting [5]) was 46 to 75% each time.

With `COCCNc1nc(-c2nccn2C)nc2sc(-c3cccc(OC)c3Cl)c(-c3ccc(OC)cc3)c12` [Compound 7, 6-(2-Chloro-3-methoxyphenyl)-N-(2-methoxyethyl)-5-(4-methoxyphenyl)-2-(1-methyl-1H-imidazol-2-yl)thieno[2,3-d]pyrimidin-4-amine], the figures for the inhibition at 20 µM in experiment [1] (setting [4]) and in experiment [1] (setting [5]) were 76 to 100% and 26 to 45%, respectively.

Regarding `COCCNc1nc(-c2cn(C)cn2)nc2sc(-c3cccc(OC)c3Cl)c(-c3ccc(OC)cc3)c12` [Compound 8, 6-(2-Chloro-3-methoxyphenyl)-N-(2-methoxyethyl)-5-(4-methoxyphenyl)-2-(1-methyl-1H-imidazol-4-yl)thieno[2,3-d]pyrimidin-4-amine], the inhibition at 20 µM in experiment [1] (setting [4]) lay in the range of 76 to 100%; in experiment [1] (setting [5]), 46 to 75%.

With `COCCNc1nc(-c2nccn2C)nc2sc(-c3cccc(OC)c3Cl)c(-c3ccccc3)c12` [Compound 9, 6-(2-Chloro-3-methoxyphenyl)-N-(2-methoxyethyl)-2-(1-methyl-1H-imidazol-2-yl)-5-phenylthieno[2,3-d]pyrimidin-4-amine], the inhibition at 20 µM in experiment [1] (setting [4]) was 76 to 100%; in experiment [1] (setting [5]), 46 to 75%.

Turning to `COCCn1ccnc1-c1nc(N[C@H]2C[C@@H](OC)C2)c2c(-c3ccccc3)c(-c3ccn(C)n3)sc2n1` [Compound 13, N-((1s,3s)-3-methoxycyclobutyl)-2-(1-(2-methoxyethyl)-1H-imidazol-2-yl)-6-(1-methyl-1H-pyrazol-3-yl)-5-phenylthieno[2,3-d]pyrimidin-4-amine], the inhibition at 20 µM in experiment [1] (setting [4]) and in experiment [1] (setting [5]) was 76 to 100% each time. Also, in experiment [1] (+ SOS), the IC50 is 1 to 4.99 µM.
